Holding throughout (assay type): biochemical
Test [1] addresses T1, calpain-I isolated from human erythrocytes (Homo sapiens, UniProt P07384).
T1 construct: calpain-I—isolated from human erythrocytes; purchased Calbiochem 208713; host or cells: human erythrocytes (tissue-derived)
T1 sequence (P07384 1-714): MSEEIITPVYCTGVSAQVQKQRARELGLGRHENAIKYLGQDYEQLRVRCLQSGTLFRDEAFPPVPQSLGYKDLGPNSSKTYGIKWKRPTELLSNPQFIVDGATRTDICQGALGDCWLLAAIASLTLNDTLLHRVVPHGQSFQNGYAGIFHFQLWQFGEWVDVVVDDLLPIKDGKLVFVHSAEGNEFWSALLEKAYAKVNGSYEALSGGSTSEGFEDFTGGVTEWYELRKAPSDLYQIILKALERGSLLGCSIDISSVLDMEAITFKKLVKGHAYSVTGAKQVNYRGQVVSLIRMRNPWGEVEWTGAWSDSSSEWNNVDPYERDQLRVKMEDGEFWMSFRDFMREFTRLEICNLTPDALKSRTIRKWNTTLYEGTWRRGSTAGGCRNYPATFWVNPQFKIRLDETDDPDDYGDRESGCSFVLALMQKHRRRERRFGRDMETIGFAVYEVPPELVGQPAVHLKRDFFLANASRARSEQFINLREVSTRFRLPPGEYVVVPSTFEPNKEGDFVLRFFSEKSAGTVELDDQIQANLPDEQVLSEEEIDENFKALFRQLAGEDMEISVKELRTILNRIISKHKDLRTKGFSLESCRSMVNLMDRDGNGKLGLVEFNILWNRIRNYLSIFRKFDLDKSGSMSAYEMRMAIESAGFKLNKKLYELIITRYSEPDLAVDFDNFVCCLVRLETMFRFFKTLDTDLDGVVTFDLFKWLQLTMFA
T1 sequence (P04632 1-268 partner): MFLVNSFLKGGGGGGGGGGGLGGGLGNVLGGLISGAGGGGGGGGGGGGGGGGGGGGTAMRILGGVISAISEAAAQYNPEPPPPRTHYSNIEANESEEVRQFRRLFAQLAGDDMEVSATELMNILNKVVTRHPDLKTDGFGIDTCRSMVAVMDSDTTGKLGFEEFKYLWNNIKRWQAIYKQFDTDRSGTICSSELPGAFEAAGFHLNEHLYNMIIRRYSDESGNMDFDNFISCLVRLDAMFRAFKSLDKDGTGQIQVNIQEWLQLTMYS
As to the kind of experiment: Calpain I enzyme inhibition in vitro (kinetic fluorescence assay). Particulars: apparent Ki from IC50 (Cheng-Prussoff); 20 nM calpain-I, 100 μM Suc-Leu-Tyr-AMC, pH 7.3, room temperature. In short, it runs like this: (§1)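 Kinetic AMC fluorescence (ex 390/em 460 nm), room temperature. Calpain-I 20 nM, 100 μM Suc-Leu-Tyr-AMC, imidazole/CaCl2 pH 7.3; cathepsins B 0.25 nM/100 μM Z-Phe-Arg-AMC, K 3 nM/10 μM Z-Gly-Pro-Arg-AMC, S 0.5 nM/20 μM Z-Val-Val-Arg-AMC, each MES/EDTA/cysteine pH 6.0. Ki from IC50 via Cheng-Prusoff, averaging 2–4 curves.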

Test [2] concerns the target T2, cathepsin K activated from recombinant human procathepsin K (Homo sapiens, UniProt P43235).
T2 construct: purchased Calbiochem 342001; host or cells: E. coli
T2 sequence (P43235 115-329): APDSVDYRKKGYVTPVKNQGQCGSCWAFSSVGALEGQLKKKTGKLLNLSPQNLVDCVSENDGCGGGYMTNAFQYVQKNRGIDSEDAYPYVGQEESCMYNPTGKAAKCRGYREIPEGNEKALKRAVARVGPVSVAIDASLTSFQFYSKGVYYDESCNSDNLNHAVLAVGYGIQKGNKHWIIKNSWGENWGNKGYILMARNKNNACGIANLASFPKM
Put plainly: Cathepsin K enzyme inhibition in vitro (kinetic fluorescence assay). The following applies: Ki(cathepsin K)/Ki(calpain) ratio. In short, it runs like this:
as §1

For test [3], the target named is T3, cathepsin L isolated from human liver (Homo sapiens, UniProt P07711).
T3 construct: cathepsin L—isolated from human liver; purchased Calbiochem 219402; host or cells: human liver (tissue-derived)
Put plainly: Cathepsin L enzyme inhibition in vitro (kinetic fluorescence assay). Particulars: Ki(cathepsin L)/Ki(calpain) ratio. The method, boiled down:
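Inhibition of cathepsin L isolated from human liver was measured by kinetic fluorescence (excitation 390 nm, emission 460 nm) using 1 nM enzyme and 2 μM Z-Phe-Arg-AMC substrate (Km 2 μM) in 50 mM MES, 2 mM EDTA, 0.05% Brij 35, 2.5 mM L-cysteine, pH 6.0, at room temperature. Apparent Ki values came from IC50 values via the Cheng-Prussoff relation, averaged over 2 to 4 dose-effect plots.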

For test [4], the target named is T4, cathepsin B isolated from human liver (Homo sapiens, UniProt P07858).
T4 construct: cathepsin B—isolated from human liver; purchased Calbiochem 219362; host or cells: human liver (tissue-derived)
Put plainly: Cathepsin B enzyme inhibition in vitro (kinetic fluorescence assay). Particulars: Ki(cathepsin B)/Ki(calpain) ratio. The method, boiled down: as §1

The target of test [5] is T5, recombinant human cathepsin S (Homo sapiens, UniProt P25774).
T5 construct: purchased Calbiochem 219343; host or cells: E. coli
As to the kind of experiment: Cathepsin S enzyme inhibition in vitro (kinetic fluorescence assay). The following applies: Ki(cathepsin S)/Ki(calpain) ratio. In short, it runs like this:
as §1

SMILES strings stand for the structures.

T5 sequence (P25774 115-331): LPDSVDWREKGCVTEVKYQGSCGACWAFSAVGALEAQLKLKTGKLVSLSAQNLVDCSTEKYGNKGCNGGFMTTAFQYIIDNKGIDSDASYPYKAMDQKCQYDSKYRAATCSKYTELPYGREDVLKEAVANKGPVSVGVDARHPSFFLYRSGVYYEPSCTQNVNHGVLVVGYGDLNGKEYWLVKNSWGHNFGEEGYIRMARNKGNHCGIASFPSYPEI
T3 sequence (P07711 114-333): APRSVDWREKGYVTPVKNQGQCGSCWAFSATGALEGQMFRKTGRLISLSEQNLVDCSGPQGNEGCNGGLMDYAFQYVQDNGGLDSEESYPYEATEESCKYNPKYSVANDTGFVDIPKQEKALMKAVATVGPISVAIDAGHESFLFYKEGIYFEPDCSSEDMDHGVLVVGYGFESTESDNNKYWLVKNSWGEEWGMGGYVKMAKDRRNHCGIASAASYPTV

Consider `NC(=O)C(=O)C(Cc1ccccc1)NC(=O)[C@H]1CCC(=O)N1Cc1ccc(F)cc1` (stereo partly drawn) [Example 5, (2R)—N-(4-Amino-3,4-dioxo-1-phenylbutan-2-yl)-1-(4-fluorobenzyl)-5-oxopyrrolidine-2-carboxamide], for which the Ki in test [1] fell in the range of 50 to 100 nM. In test [2], the “Sel cat. K” value was “++ (10<Ki(cathepsin B)/Ki(calpain)≦30)”. Besides, the “Sel cat. L” value in test [3] is given as “++ (10<Ki(cathepsin B)/Ki(calpain)≦30)”. The “Sel cat. B” value in test [4] is recorded as “++ (10<Ki(cathepsin B)/Ki(calpain)≦30)”. The “Sel cat. S” value in test [5] is “++ (30<Ki(cathepsin B)/Ki(calpain)≦100)”.
For `NC(=O)C(=O)C(Cc1ccccc1)NC(=O)[C@H]1CCC(=O)N1Cc1cccc(F)c1` (stereo partly drawn) [Example 8, (2R)—N-(4-Amino-3,4-dioxo-1-phenylbutan-2-yl)-1-(3-fluorobenzyl)-5-oxopyrrolidine-2-carboxamide], the Ki in test [1] was 50 to 100 nM. In addition, the “Sel cat. K” value in test [2] is “++ (10<Ki(cathepsin B)/Ki(calpain)≦30)”. In addition, the “Sel cat. L” value in test [3] is on record as “++ (10<Ki(cathepsin B)/Ki(calpain)≦30)”. For the same compound, the “Sel cat. B” value in test [4] is recorded as “+++ (Ki(cathepsin B)/Ki(calpain) ratio of >30)”. Also, in test [5], the “Sel cat. S” value is given as “+++ (Ki(cathepsin S)/Ki(calpain) ratio of >100)”.
On to `N#Cc1cccc(CN2C(=O)CC[C@@H]2C(=O)NC(Cc2ccccc2)C(=O)C(N)=O)c1` (stereo partly drawn) [Example 16, (2R)—N-(4-Amino-3,4-dioxo-1-phenylbutan-2-yl)-1-(3-cyanobenzyl)-5-oxopyrrolidine-2-carboxamide], for which the Ki in test [1] was 100 to 600 nM. Besides, in test [2], the “Sel cat. K” value is on record as “+++ (Ki(cathepsin K)/Ki(calpain) ratio of >30)”. For the same compound, the “Sel cat. L” value in test [3] was “++ (10<Ki(cathepsin B)/Ki(calpain)≦30)”. Besides, the “Sel cat. B” value in test [4] is reported as “++ (10<Ki(cathepsin B)/Ki(calpain)≦30)”. In addition, in test [5], the “Sel cat. S” value was “+ (10<Ki(cathepsin S)/Ki(calpain)≦30)”.
As for `NC(=O)C(=O)C(Cc1ccccc1)NC(=O)[C@H]1CCC(=O)N1Cc1ccccc1C(F)(F)F` (stereo partly drawn) [Example 17, (2R)—N-(4-Amino-3,4-dioxo-1-phenylbutan-2-yl)-5-oxo-1-[2-(trifluoromethyl)benzyl]-pyrrolidine-2-carboxamide], the Ki in test [1] was 50 to 100 nM. Also, in test [2], the “Sel cat. K” value is on record as “+++ (Ki(cathepsin K)/Ki(calpain) ratio of >30)”. Moreover, the “Sel cat. L” value in test [3] is reported as “+++ (Ki(cathepsin L)/Ki(calpain) ratio of >30)”. Further, the “Sel cat. B” value in test [4] is “++ (10<Ki(cathepsin B)/Ki(calpain)≦30)”. The “Sel cat. S” value in test [5] is given as “+++ (Ki(cathepsin S)/Ki(calpain) ratio of >100)”.
`NC(=O)C(=O)C(Cc1ccccc1)NC(=O)[C@H]1CCC(=O)N1Cc1c(F)cccc1F` (stereo partly drawn) [Example 51, (2R)—N-(4-Amino-3,4-dioxo-1-phenylbutan-2-yl)-5-oxo-1-(2,6-difluorobenzyl)-pyrrolidine-2-carboxamide]: the Ki in test [1] was in the range of 50 to 100 nM. Further, the “Sel cat. K” value in test [2] is “+++ (Ki(cathepsin K)/Ki(calpain) ratio of >30)”. Also, in test [3], the “Sel cat. L” value was “++ (10<Ki(cathepsin B)/Ki(calpain)≦30)”. The “Sel cat. B” value in test [4] was “++ (10<Ki(cathepsin B)/Ki(calpain)≦30)”. In addition, in test [5], the “Sel cat. S” value is reported as “+++ (Ki(cathepsin S)/Ki(calpain) ratio of >100)”.
Consider `O=C(NCc1ncco1)C(=O)C(Cc1ccccc1)NC(=O)[C@H]1CCC(=O)N1Cc1ccccc1` (stereo partly drawn) [Example 64, (2R)-1-Benzyl-N-(4-(oxazol-2-ylmethylamino)-3,4-dioxo-1-phenylbutan-2-yl)-5-oxopyrrolidine-2-carboxamide], for which the Ki in test [1] was 100 to 600 nM. The “Sel cat. K” value in test [2] is “+++ (Ki(cathepsin K)/Ki(calpain) ratio of >30)”. The “Sel cat. L” value in test [3] is “++ (10<Ki(cathepsin B)/Ki(calpain)≦30)”. For the same compound, in test [4], the “Sel cat. B” value was “++ (10<Ki(cathepsin B)/Ki(calpain)≦30)”. Moreover, the “Sel cat. S” value in test [5] is recorded as “+++ (Ki(cathepsin S)/Ki(calpain) ratio of >100)”.

(Values after patent publication US9018206B2, “Carboxamide compounds and their use as calpain inhibitors” (AbbVie Deutschland GmbH & Co. KG, priority 2009, dated 2015).)
